A melting point compilation (Tetko et al.; mined from patent text by program, amines drawn as free bases though some values may be those of a salt)

| SMILES | melting point |
| --- | --- |
| COc1ccc(Nc2c(C#N)cnc3cc(OC)c(OC)cc23)cc1O | 254 to 256 °C |
| CCCCCCC(C)(C)c1cc(OC)c(C2=C[C@@H]3CC[C@@]2(C)C3(C)C)c(OC)c1 | 35 to 37 °C |
| NS(=O)(=O)c1ncccc1C(F)(F)F | 135 to 140 °C |
| CC1=C(C(=O)NC(C)(C)C)C(c2ccccc2Br)C(C(=O)OC(C)C)=C(COCCn2c(C)nc3cnccc32)N1 (stereo unspecified) | 160 to 165 °C |
| O=C1c2ccccc2COc2cc(Cl)ccc21 | 105 to 106 °C |
| COC(=O)CC(=O)CS(=O)(=O)C(c1ccc(Cl)cc1)c1ccc(Cl)cc1 | 76 to 78 °C |
| CC(C)NC1=NS(=O)(=O)c2ccc(S(=O)(=O)c3ccccc3)cc2N1 | 178 to 180 °C |
| CC(C)(C)OC(=O)N1CCc2cccc([N+](=O)[O-])c2CC1 | 85 to 88 °C |
| O=C/C=C/c1csc(Nc2ccccc2)n1 | 142 to 143 °C |
| CCC(=O)OCC(CCn1cnc2cnc(N)nc21)COC(=O)CC | 77.5 to 79 °C |
| Cc1nc(N)nc(N)c1C#CC(C)(C)c1ccc(C(F)(F)F)cc1 | 153 to 157 °C |
| CCCOc1ccc2[nH]c(C(=O)O)cc2c1 | 155 °C |
| CCN1CCN(c2ccc([N+](=O)[O-])cc2OC)CC1 | 84 to 85 °C |
| COC(=O)c1cc(Br)c(C=O)o1 | 83 to 84 °C |
| CC(=O)Nc1nccc(Oc2ccc3c(C(=O)Nc4ccc(F)c(C(F)(F)F)c4)cccc3c2)n1 | 213 to 214 °C |
| Cc1ccc2c(c1)C1CN(CCCC(=O)c3ccc(F)cc3)CCC1N2C (stereo unspecified) | 140 to 145 °C |
| CC1(CN2CCC(n3c(=O)[nH]c4ccccc43)CC2)OCc2ccccc2-n2cccc21 (stereo unspecified) | 199 to 201 °C |
| O=C(O)/C=C/C=C(c1ccccc1C(F)(F)F)c1ccccc1C(F)(F)F | 162 to 164 °C |
| OC1CC(CN2CCC(c3ccccc3)CC2)CCc2ccccc21 (stereo unspecified) | 48 to 50 °C |
| COc1ccc(-n2nc(C(C)(C)C)cc2NC(=O)c2cccc3cc(Oc4cc(Cl)ncn4)ccc23)cc1 | 163 to 164 °C |
| Cn1ccnc1NC(=S)Nc1ccccc1 | 170 to 172 °C |
| CCC12CCC3C4CCC(=O)C=C4C=CC3C1CCC2OC(C)=O (stereo unspecified) | 163 to 177 °C |
| O=C(NC=CC1OC1CCCNC(=O)c1ccc(OC(F)(F)F)cc1)c1ccc(OC(F)(F)F)cc1 (stereo unspecified) | 121 to 123 °C |
| O=C(O)CNCCOc1cccc(CCNS(=O)(=O)c2ccc(Cl)cc2)c1 | 205 to 207 °C |
| Cc1c(C)c2c(c(Cl)c1C=O)CC(C)(C)C2 | 108 °C |
| O=S(=O)(Cc1ccccc1)c1c[nH]c2ccccc12 | 153 to 155 °C |

| SMILES | melting point |
| --- | --- |
| CC1(C)OC(=O)C(OC2CCc3ccccc32)=C1c1ccc(S(C)(=O)=O)cc1 (stereo unspecified) | 128 to 129 °C |
| O=C1c2ccc(Nc3ccccc3)nc2CC2CCCCC12 (stereo unspecified) | 214 to 216 °C |
| COc1cc(OC)c2c(=O)[nH]c(-c3cc(C)c(OCCN(C)C)c(C)c3)cc2c1 | 261 to 263 °C |
| CCN(CC)CCN(CCN1CCCCC1)c1ccc(-c2nc3ccc(Cl)cc3[nH]2)cc1 | 156 °C |
| Cc1cc2c(C)cc(-c3ccccc3Cl)nc2nc1-c1ccccc1 | 151 to 153 °C |
| N#Cc1cc(C(F)(F)F)n(Cc2ccccc2)c1-c1ccc(Cl)cc1 | 104 to 106 °C |
| N#CN1CCC(c2nsc3ccccc23)CC1 | 118 to 120 °C |
| Cc1ccc(-c2ccccc2)c(NC(=N)N2CCOCC2)c1 | 154 to 155 °C |
| O=C(Nc1cccnc1)N1CCc2cc(I)ccc21 | 210 to 215 °C |
| O=C(O)COc1nnc(-c2ccc3c(c2)CCO3)o1 | 151 to 153 °C |
| COc1cncc(-c2cccc(OC3SCC(OC(C)=O)C(OC(C)=O)C3OC(C)=O)c2)c1 (stereo unspecified) | 167 °C |
| CN1OCN=C1c1nn(-c2c(Cl)cc(C(F)(F)F)cc2Cl)c(N)c1S(=O)C(F)(F)F (stereo unspecified) | 165 to 167 °C |
| O=C1NC(=S)NC(=O)C1=Cc1ccc[nH]1 | 280 °C |
| O=c1[nH]c2ncc(-c3ccc(O)cc3)nc2n1CC1CCOC1 (stereo unspecified) | 256 to 258 °C |
| CC1CCc2cccc3c2N1C(=O)C3=O (stereo unspecified) | 241 to 243 °C |
| CCc1nc2c(C)cc(C)nc2n1Cc1ccc(C(CC(=O)NS(C)(=O)=O)c2ccccc2)cc1 (stereo unspecified) | 118 to 123 °C |
| COc1cc(C(=O)N2Cc3ccc(C(=O)NCc4ccc5c(c4)OCCO5)n3Cc3ccccc32)ccc1-c1ccccc1C | 153 to 155 °C |
| O=C1C=CC2(C=C1)CC(=O)N2OCc1ccccc1 | 77 to 79 °C |
| CCNc1ccc(Cl)cc1C(=O)c1ccccc1 | 57 to 58 °C |
| COCC(COC)Oc1cc(Oc2ccc(S(C)(=O)=O)nc2)cc2cc(C3=NCC(CCO)S3)[nH]c12 (stereo unspecified) | 69 to 71 °C |
| CCN(CC)CCOc1ccc(Nc2ncc3c(n2)N(CC)C(=O)N(c2cc(OC)cc(OC)c2)C3)cc1 | 139 to 141 °C |
| NCC(=O)NCC(=O)Nc1ccc([N+](=O)[O-])cc1C(=O)c1ccccc1 | 121 to 123 °C |
| O=C(O)Cc1ccc2c(c1)C(=O)c1cccc(Cl)c1CO2 | 173 to 176 °C |
| CC(=O)c1ccc2cc(C(C)Br)ccc2c1 (stereo unspecified) | 64 to 66 °C |
| CCc1nc(C)cn1-c1ccc2nc(NC(=O)c3ccc(C(C)(C)C)cc3)cn2n1 | 220 to 221 °C |
| CCCCOc1cccc(C[C@H](NC(C)=O)[C@H](O)CNCc2cccc(CC)c2)c1 | 112 to 114 °C |

More lines, now with the values ahead:

| melting point | SMILES |
| --- | --- |
| 100 °C | Cn1c(=O)c2c(ncn2CC(O)CN2CCN(C(=O)c3ccco3)CC2)n(C)c1=O (stereo unspecified) |
| 85 to 90 °C | NCC1CCn2c(cc3ccccc32)C1 (stereo unspecified) |
| 177 to 179 °C | Cc1c[nH]c(Cc2ccccc2NC(=O)N2CCN(C)CC2)n1 |
| 103 to 105 °C | Cc1cc(C(C)(C)C)c(C)c(O)c1-c1c(C)cc(C(C)(C)C)c(C)c1O |
| 121 °C | c1cc(Cn2ccnc2)c2nccnc2c1 |
| 153 °C | CNC(=O)C(C)(C)N=NC(C)(C)C(=O)NC |
| 66 to 68 °C | COC(=O)CNc1cccc(Br)c1 |
| 102 °C | OC(Nc1cccc(C(F)(F)F)c1)c1cccnc1 (stereo unspecified) |
| 284 to 286 °C | Oc1ccc(-c2nc3ccc(O)cc3s2)cc1 |
| 122 °C | COCS[C@H](C)[C@](O)(Cn1cncn1)c1ccc(Cl)cc1 |
| 128 to 129 °C | CS(=O)(=O)Nc1cc([N+](=O)[O-])ccc1F |
| 106 to 111 °C | O=C(O)C(Oc1ccc(F)cc1)c1ccc(Oc2ccc(Cl)cc2)cc1 (stereo unspecified) |
| 190 to 192 °C | COCc1nc2c(N)nc3cc(CCC(=O)N4CCS(=O)(=O)CC4)ccc3c2n1CC(C)(C)O |
| 65 to 66 °C | CCCCCCCCCC(=O)Nc1ccccc1 |
| 151 to 152 °C | CCOC(=O)C1CC(O)c2cc3c(cc2C1c1cc(OC)c(OC)c(OC)c1)OCO3 (stereo unspecified) |
| 250 °C | O=C(O)c1ccc(S(=O)(=O)Cc2c(O[C@H](Cn3ccnc3)c3ccccc3)ccc3c2CCCC3=O)cc1 |
| 163 to 164 °C | COc1ccc(COC(=O)c2cc([N+](=O)[O-])c3ccccc3c2O)cc1 |
| 101 to 102 °C | C=CCc1c(OC)c(C)c2c(c1OC(C)=O)C(=O)OC2 |
| 149 to 150 °C | CCOc1ccc(-c2nc(OC(C)=O)c(-c3ccccc3)s2)cc1 |
| 181 to 182 °C | CCSC1(SCC)C(O)CC2C3CCC4=CC(=O)C=CC4(C)C3(F)C(OC(C)=O)CC21C (stereo unspecified) |
| 160 to 162 °C | N#Cc1c(C(F)(F)C(F)(F)F)nn(-c2c(Cl)cc(C(F)(F)F)cc2Cl)c1N |
| 162 to 163 °C | Cn1cc(-c2ccc(O)cc2)c(=O)c(-c2cccc(C(F)(F)F)c2)c1 |
| 62 to 64 °C | CCCCCCCCCCCCCCOc1ccc(CN)cc1 |
| 172 to 173 °C | CC1=C(C(=O)c2ccc(C(=O)NCCC#N)cc2)C(=O)C2C=CC=CC2C1=O (stereo unspecified) |
| 134 to 135 °C | NC(=O)N(O)CCOc1ccc2c(c1)CCN(CCCc1ccccc1)S2(=O)=O |

| melting point | SMILES |
| --- | --- |
| 307 to 312 °C | Cc1c(Cc2ccccc2)c(=O)[nH]c2cc(O)cc(O)c12 |
| 77 to 79 °C | CS(=O)(=O)C=Cc1ccccc1 |
| 183 to 184 °C | CNS(=O)(=O)c1ccc(Oc2ccc(NC(C)=O)cc2)cc1 |
| 70 to 75 °C | CCOC(=O)C(CC=Cc1ccccc1)(NC(C)=O)C(=O)OCC |
| 150 °C | CC(C)Cn1c(=O)n(C)c(=O)c2cc(C(=O)c3cccc4ccccc34)sc21 |
| 188 to 189 °C | Cc1nc2c([N+](=O)[O-])cccn2c1C=O |
| 120 °C | N#CCOc1cccc2[nH]c3ccccc3c12 |
| 146 °C | COC(=O)Cc1n[nH]c2ccccc12 |
| 220 to 223 °C | CC(C)[C@H](NC(=O)OCc1ccccn1)C(=O)N[C@@H](Cc1ccccc1)[C@@H](O)[C@H](O)[C@H](Cc1ccccc1)NC(=O)[C@@H](NC(=O)OCc1ccccn1)C(C)C |
| 105 to 108 °C | CCOc1ccc2c(c1)C(=O)N(CCCCBr)S2(=O)=O |
| 64 °C | Cn1c(C(F)(F)F)n[nH]c1=O |
| 49 to 58 °C | COc1ccc(CCCNC(=O)c2coc(-c3ccc(/C(=C\CCCCC(=O)O)c4cccnc4)cc3)n2)cc1 |
| 104 to 106 °C | CCN(CC)CCCN1c2cc(C)c(C)cc2N(C)C(=O)c2c(C)cc(C)nc21 |
| 240 °C | Cc1ccc2c(c1)c1cc(-c3cc(F)cc(F)c3)c(=O)n(C)c1n2C |
| 79 to 80 °C | CC(C)(C)C(=O)CC(Sc1ccccc1)c1ccc(Cl)cc1Cl (stereo unspecified) |
| 132 to 135 °C | CCOC(=O)Cn1c2c(c3ccc(Cl)c(Cl)c31)CCN(C(=O)OC(C)(C)C)CC2 |
| 167 to 168 °C | O=C(CSCCOc1ccccc1)c1ccc2[nH]c3ncc(Cl)cc3c2c1 |
| 176 to 180 °C | COc1cc(OC)nc(NC(=O)NS(=O)(=O)c2c(C)nsc2OCC(Cl)(Cl)Cl)n1 |
| 160 °C | Cc1cccc(NC(=O)c2cc(C#N)cc(C)n2)c1 |
| 106 to 107 °C | CC(=S)OC1CCN(C(=O)OCc2ccc([N+](=O)[O-])cc2)CC1 |
| 158 °C | Nc1ccc(CC2CCN(S(=O)(=O)c3ccccc3)CC2)cc1 |
| 220 to 222 °C | Cc1nc2ccccc2cc1NC(=O)N1CCN(c2cccc3ccccc23)CC1 |
| 114 to 116 °C | N#CCC(=O)NC(C(=O)OC1CCCCC1)c1ccccc1 (stereo unspecified) |
| 68 to 70 °C | N#Cc1ccc(OCc2ccsc2)cc1OC(C(=O)O)c1ccccc1Cl (racemic) |
